How the values were obtained:
[1] = molecular target: T1, hNav1.7 (Homo sapiens (Human), UniProt Q15858); experiment: Patch voltage clamp electrophysiology (PatchXpress), HEK-293 cells, inactivated state block; assay type: cell-based; settings: HEK-293 cells, β1 coexpressed; inactivated state, holding −60 mV; read-out: EP_PX 293 hNav1.7 (IC50)
[2] = molecular target: T1, hNav1.7; experiment: Tritiated aryl sulfonamide binding to membranes from cells expressing hNav1.7 and the β1 subunit (competitive binding); settings: membranes with hNav1.7 and β1 subunit; [3H]compound displacement, 18 h, room temperature; read-out: NaV1.7 395 Memb Binding (IC50)
Method in brief: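 Competitive displacement of 100 μM [3H]-labelled tritiated aryl sulfonamide from hNav1.7/β1 membranes, 18 h at room temperature in 100 mM NaCl, 20 mM Tris HCl pH 7.4. Non-specific binding defined with 1 μM unlabelled compound. Filter-bound radioactivity measured by liquid scintillation counting.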

T1 sequence (Q15858 whole entry, looked up): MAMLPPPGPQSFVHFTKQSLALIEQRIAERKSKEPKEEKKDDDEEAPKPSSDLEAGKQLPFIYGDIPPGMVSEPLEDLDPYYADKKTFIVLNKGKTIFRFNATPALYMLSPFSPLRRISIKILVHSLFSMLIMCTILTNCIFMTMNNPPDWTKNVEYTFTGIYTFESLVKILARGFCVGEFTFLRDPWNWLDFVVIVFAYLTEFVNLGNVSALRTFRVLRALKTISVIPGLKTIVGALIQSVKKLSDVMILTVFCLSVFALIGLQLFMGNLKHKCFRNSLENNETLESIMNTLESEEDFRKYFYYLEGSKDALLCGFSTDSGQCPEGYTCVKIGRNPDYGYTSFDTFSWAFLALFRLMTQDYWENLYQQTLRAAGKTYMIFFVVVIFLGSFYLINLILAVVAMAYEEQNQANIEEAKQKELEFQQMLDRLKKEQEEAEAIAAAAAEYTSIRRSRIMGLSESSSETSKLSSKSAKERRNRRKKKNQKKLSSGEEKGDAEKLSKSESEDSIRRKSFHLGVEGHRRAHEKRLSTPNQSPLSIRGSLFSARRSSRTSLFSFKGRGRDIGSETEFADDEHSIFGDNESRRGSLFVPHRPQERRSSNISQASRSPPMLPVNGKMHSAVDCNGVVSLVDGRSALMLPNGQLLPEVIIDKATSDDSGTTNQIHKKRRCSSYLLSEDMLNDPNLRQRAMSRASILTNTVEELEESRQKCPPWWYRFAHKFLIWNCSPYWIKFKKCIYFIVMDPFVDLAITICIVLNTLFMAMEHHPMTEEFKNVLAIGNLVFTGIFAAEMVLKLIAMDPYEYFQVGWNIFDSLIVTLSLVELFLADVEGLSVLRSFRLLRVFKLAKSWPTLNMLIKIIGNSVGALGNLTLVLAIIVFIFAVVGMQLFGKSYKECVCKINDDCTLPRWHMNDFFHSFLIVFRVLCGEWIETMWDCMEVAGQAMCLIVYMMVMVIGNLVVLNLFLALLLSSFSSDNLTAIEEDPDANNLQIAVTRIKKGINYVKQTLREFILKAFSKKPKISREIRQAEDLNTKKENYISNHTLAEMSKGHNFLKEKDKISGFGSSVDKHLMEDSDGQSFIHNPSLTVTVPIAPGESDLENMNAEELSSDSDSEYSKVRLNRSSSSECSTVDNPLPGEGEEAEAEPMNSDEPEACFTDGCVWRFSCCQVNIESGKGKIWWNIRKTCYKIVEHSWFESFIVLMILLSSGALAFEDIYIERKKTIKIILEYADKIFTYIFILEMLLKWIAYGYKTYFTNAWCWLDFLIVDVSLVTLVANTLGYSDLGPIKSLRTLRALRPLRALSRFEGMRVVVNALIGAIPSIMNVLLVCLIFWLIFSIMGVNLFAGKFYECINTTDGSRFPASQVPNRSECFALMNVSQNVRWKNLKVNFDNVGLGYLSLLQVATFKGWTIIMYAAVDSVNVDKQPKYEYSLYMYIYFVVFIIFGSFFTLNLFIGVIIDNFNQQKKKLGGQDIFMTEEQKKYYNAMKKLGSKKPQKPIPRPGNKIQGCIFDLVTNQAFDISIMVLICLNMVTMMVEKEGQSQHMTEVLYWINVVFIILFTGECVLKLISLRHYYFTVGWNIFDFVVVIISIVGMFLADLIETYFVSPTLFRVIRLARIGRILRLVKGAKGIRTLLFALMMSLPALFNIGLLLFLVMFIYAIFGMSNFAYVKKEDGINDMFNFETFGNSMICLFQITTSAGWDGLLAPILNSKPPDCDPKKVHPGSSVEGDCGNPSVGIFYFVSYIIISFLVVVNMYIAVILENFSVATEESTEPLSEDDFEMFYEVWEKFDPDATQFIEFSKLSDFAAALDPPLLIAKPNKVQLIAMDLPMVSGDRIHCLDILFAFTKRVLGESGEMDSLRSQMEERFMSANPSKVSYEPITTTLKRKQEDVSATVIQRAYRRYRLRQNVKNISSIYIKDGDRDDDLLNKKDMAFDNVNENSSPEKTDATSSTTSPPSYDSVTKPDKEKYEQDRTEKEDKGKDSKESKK
T1 sequence (Q07699 whole entry partner, looked up): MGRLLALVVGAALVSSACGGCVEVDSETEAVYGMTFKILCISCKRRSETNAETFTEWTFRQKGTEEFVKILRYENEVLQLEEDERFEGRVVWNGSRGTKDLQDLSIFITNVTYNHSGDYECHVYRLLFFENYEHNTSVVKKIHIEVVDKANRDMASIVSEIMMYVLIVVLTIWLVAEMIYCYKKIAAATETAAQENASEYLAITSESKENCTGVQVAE

Molecule	IC50 [1]	IC50 [2]
O=C(NS(=O)(=O)N1CCC1)c1cc(C2CC2)c(OCC23CC4CC(C2)C(F)(F)C(C4)C3)cc1F	6 nM	4 nM
N#CC1(COc2cc(F)c(C(=O)NS(=O)(=O)N3CCC3)cc2C2CC2)C2CC3CC(C2)CC1C3 (centres unmarked)	5 nM	9 nM
CC1(C)CCCC(COc2cc(F)c(C(=O)NS(=O)(=O)N3CCC3)cc2C2CC2)C1 (centres unmarked)	8 nM	4 nM
O=C(NS(=O)(=O)N1CCC1)c1cc(C2CC2)c(OCC23CC4CC(CC(CF)(C4)C2)C3)cc1F	8 nM	4 nM
CS(=O)(=O)NC(=O)c1cc(Cl)c(OCC23CC4CC(CC(O)(C4)C2)C3)cc1F	2250 nM	10000 nM
COCCS(=O)(=O)NC(=O)c1cc(C2CC2)c(OCC23CCCCC2C3)cc1F (centres unmarked)	10 nM	19 nM
O=C(NS(=O)(=O)N1CCC(O)CC1)c1cc(C2CC2)c(OCC23CC4CC(CC(C4)C2)C3)cc1F	23 nM	26 nM
O=C(NS(=O)(=O)N1CCC1)c1cc(C2CC2)c(OCC2CCC3(CC2)CC3)cc1F	6 nM	4 nM
CS(=O)(=O)NC(=O)c1ccc(OC[C@H]2CC[C@H](C(F)(F)F)CC2)cc1F	1000 nM	1500 nM
[2H]C1([2H])C([2H])([2H])C([2H])([2H])C([2H])(COc2cc(F)c(C(=O)NS(=O)(=O)N3CCC3)cc2Cl)C([2H])([2H])C1([2H])[2H]	310 nM	160 nM
[2H]C1([2H])C([2H])([2H])C([2H])([2H])C([2H])(COc2cc(F)c(C(=O)NS(=O)(=O)N3CCC3)cc2C2CC2)C([2H])([2H])C1([2H])[2H]	100 nM	11 nM
O=C(NS(=O)(=O)C1CC1)c1cc(C2CC2)c(O[C@@H]2C[C@@H]3CC[C@H]2C3)cc1F	41 nM	14 nM
O=C(NS(=O)(=O)N1CCC1)c1cc(C2CC2)c(O[C@@H]2C[C@@H]3CC[C@H]2C3)cc1F	80 nM	31 nM
CS(=O)(=O)NC(=O)c1cc(C2CC2)c(O[C@@H]2C[C@@H]3CC[C@H]2C3)cc1F	230 nM	45 nM
O=C(NS(=O)(=O)N1CCC1)c1cc(C2CC2)c(OCCC2CCC(F)(F)CC2)cc1F	80 nM	230 nM
O=C(NS(=O)(=O)N1CCC1)c1cc(C2CC2)c(O[C@H]2C[C@@H]3CC[C@H]2C3)cc1F	32 nM	70 nM
CS(=O)(=O)NC(=O)c1cc(C2CC2)c(O[C@H]2C[C@@H]3CC[C@H]2C3)cc1F	24 nM	74 nM
O=C(NS(=O)(=O)N1CCC1)c1cc(F)c(OCC23CC4CC(CC(C4)C2)C3)c(Cl)c1F	5200 nM	1300 nM
O=C(NS(=O)(=O)N1CCC1)c1cc(Cl)c(OCC2CCC3(CCC3)CC2)cc1F	77 nM	25 nM
CO[C@H]1CCN(S(=O)(=O)NC(=O)c2cc(C3CC3)c(OCC34CC5CC(CC(C5)C3)C4)cc2F)C1	300 nM	29 nM
O=C(NS(=O)(=O)N1CCC1)c1cc(Cl)c(OCC23CC4CC(CC(C4)C2)C3)c(F)c1F	2300 nM	370 nM
CS(=O)(=O)NC(=O)c1cc(Cl)c(OCC23CC4CC(CC(C4)C2)C3)c(F)c1F	1500 nM	190 nM
O=C(NS(=O)(=O)N1CCC1)c1cc(C2CC2)c(O[C@H]2C3CC4CC2C[C@](F)(C4)C3)cc1F	100 nM	20 nM

Molecule	IC50 [1]	IC50 [2]
O=C(NS(=O)(=O)C1CC1)c1cc(C2CC2)c(O[C@H]2C3CC4CC2C[C@](F)(C4)C3)cc1F	43 nM	11 nM
O=C(NS(=O)(=O)N1CCC1)c1cc(C2CC2)c(OC2C3CC4CC(C3)CC2C4)cc1F (centres unmarked)	56 nM	10 nM
O=C(NS(=O)(=O)N1CCC1)c1cc(C2CC2)c(OC2CCC(F)(F)CC2)cc1F	270 nM	110 nM
O=C(NS(=O)(=O)C1CC1)c1cc(C2CC2)c(OC2CCC(F)(F)CC2)cc1F	140 nM	43 nM
O=C(NS(=O)(=O)N1CCC1)c1cc(Cl)c(OC2CCC(F)(F)CC2)cc1F	4400 nM	980 nM
CC1(F)CCC(COc2cc(F)c(C(=O)NS(=O)(=O)N3CCC3)cc2Cl)CC1 (centres unmarked)	280 nM	270 nM
CS(=O)(=O)NC(=O)c1cc(C2CC2)c(OC2CCC3(CC2)CC3)cc1F	18 nM	21 nM
O=C(NS(=O)(=O)N1CCC1)c1cc(C2CC2)c(OC2CCC3(CC2)CC3)cc1F	29 nM	23 nM
CS(=O)(=O)NC(=O)c1cc(C2CC2)c(OCC2CCC3C(C2)C3(F)F)cc1F (centres unmarked)	19 nM	21 nM
O=C(NS(=O)(=O)C1CC1)c1cc(C2CC2)c(OCC2CCC3C(C2)C3(F)F)cc1F (centres unmarked)	9 nM	8 nM
O=C(NS(=O)(=O)N1CCC1)c1cc(C2CC2)c(OCC2CCC3C(C2)C3(F)F)cc1F (centres unmarked)	34 nM	15 nM
COC12CC3CC(C1)C(Oc1cc(F)c(C(=O)NS(C)(=O)=O)cc1Cl)C(C3)C2 (centres unmarked)	610 nM	730 nM
O=C(NS(=O)(=O)C1CC1)c1cc(C2CC2)c(O[C@H]2C3CC4CC2C[C@@](Cl)(C4)C3)cc1F	24 nM	4 nM
O=C(NS(=O)(=O)N1CCC1)c1cc(C2CC2)c(OC2CCC(Cl)(Cl)CC2)cc1F	120 nM	44 nM
CS(=O)(=O)NC(=O)c1cc(C2CC2)c(OC2CCC3(CCCCC3)CC2)cc1F	120 nM	7 nM
O=C(NS(=O)(=O)C1CC1)c1cc(C2CC2)c(OC2CCC3(CCCCC3)CC2)cc1F	61 nM	4 nM
CC1(C)CCCC(Oc2cc(F)c(C(=O)NS(=O)(=O)C3CC3)cc2C2CC2)C1 (centres unmarked)	53 nM	6 nM
O=C(NS(=O)(=O)N1CCC1)c1cc(C2CC2)c(OC2CCC3(CCCCC3)CC2)cc1F	220 nM	6.3 nM
CC1(F)CCC(COc2cc(F)c(C(=O)NS(=O)(=O)N3CCC3)cc2C2CC2)CC1 (centres unmarked) [listing 1 of 2 here]	67 nM	23 nM
O=C(NS(=O)(=O)N1CCC1)c1cc(C2CC2)c(OCC2CCC3(CCC3)CC2)cc1F	300 nM	4 nM
O=C(NS(=O)(=O)N1CCC1)c1cc(C2CC2)c(O[C@H]2C3CC4CC2C[C@@](F)(C4)C3)cc1F	24 nM	21 nM
O=C(NS(=O)(=O)N1CCC1)c1cc(C2CC2)c(O[C@H]2C3CC4CC2C[C@@](Cl)(C4)C3)cc1F	94 nM	10 nM
CS(=O)(=O)NC(=O)c1cc(Cl)c(OCC2CC=CCC2)cc1F (centres unmarked)	1300 nM	130 nM

Molecule	IC50 [1]	IC50 [2]
CS(=O)(=O)NC(=O)c1cc(C2CC2)c(O[C@H]2C3CC4CC2C[C@@](Cl)(C4)C3)cc1F	7 nM	9 nM
O=C(NS(=O)(=O)N1CCC1)c1cc(C2CC2(F)F)c(OCC23CC4CC(CC(C4)C2)C3)cc1F (centres unmarked)	340 nM	5 nM
O=C(NS(=O)(=O)C1CC1)c1cc(C2CC2(F)F)c(OCC23CC4CC(CC(C4)C2)C3)cc1F (centres unmarked)	140 nM	4 nM
CC1(F)CCC(COc2cc(F)c(C(=O)NS(=O)(=O)N3CCC3)cc2C2CC2)CC1 (centres unmarked) [listing 2 of 2 here]	35 nM	22 nM
CNS(=O)(=O)NC(=O)c1cc(C2CC2)c(OCC2CN(C(c3ccccc3)c3ccccc3)C2)cc1F	600 nM	34 nM
O=C(NS(=O)(=O)N1CC(F)C1)c1cc(C2CC2)c(O[C@H]2C3CC4CC2C[C@](Cl)(C4)C3)cc1F	1200 nM	20 nM
CS(=O)(=O)NC(=O)c1cc(C2CC2)c(OCC2CCC3CC3C2)cc1F (centres unmarked)	2 nM	9 nM
O=C(NS(=O)(=O)N1CC(F)C1)c1cc(C2CC2)c(O[C@H]2C3CC4CC2C[C@@](Cl)(C4)C3)cc1F	890 nM	28 nM
O=C(NS(=O)(=O)N1CC(F)C1)c1cc(C2CC2)c(OCC2CCC3CC3C2)cc1F (centres unmarked)	520 nM	11 nM
CC1CCCC(C)C1COc1cc(F)c(C(=O)NS(=O)(=O)N2CCC2)cc1C1CC1 (centres unmarked)	390 nM	60 nM
CC1CCCC(C)C1COc1cc(F)c(C(=O)NS(=O)(=O)N2CCC2)cc1Cl (centres unmarked)	74 nM	25 nM
O=C(NS(=O)(=O)N1CCC1)c1cc(C2CC2)c(OCC2CCCC(F)(F)C2)cc1F (centres unmarked)	43 nM	22 nM
CNS(=O)(=O)NC(=O)c1cc(C2CC2)c(OCC2CCCC(F)(F)C2)cc1F (centres unmarked)	930 nM	66 nM
CS(=O)(=O)NC(=O)c1cc(C2CC2)c(OCC2CCCC(F)(F)C2)cc1F (centres unmarked)	420 nM	27 nM
CCS(=O)(=O)NC(=O)c1cc(C2CC2)c(OCC2CCC3(CC2)CC3)cc1F	23 nM	3 nM
CC1CCC(COc2cc(F)c(C(=O)NS(C)(=O)=O)cc2C2CC2)CC1 (centres unmarked)	28 nM	8 nM
O=C(NS(=O)(=O)N1CCC1)c1cc(C2CC2)c(OCC2CC=C(C3CC3)CC2)cc1F (centres unmarked)	10 nM	6 nM
CO[C@]12CC3CC(C1)[C@@H](Oc1cc(F)c(C(=O)NS(=O)(=O)N4CCC4)cc1C1CC1)C(C3)C2	190 nM	100 nM
CC1(COc2cc(F)c(C(=O)NS(=O)(=O)C3CC3)cc2C2CC2)CC=CCC1 (centres unmarked)	12 nM	5 nM
4-(adamantan-1-ylmethoxy)-3-chloro-N-(methylsulfonyl)benzamide [Example 12]	6.9 nM	
CC1(COc2cc(F)c(C(=O)NS(=O)(=O)N3CC(F)C3)cc2C2CC2)CCCCC1 [Example 447, 5-cyclopropyl-2-fluoro-N-((3-fluoroazetidin-1-yl)sulfonyl)-4-((1-methylcyclohexyl)methoxy)benzamide]		4.2 nM
O=C(NS(=O)(=O)N1CCC1)c1cc(C2CC2)c(OCC2CC3CC3C2)cc1F (centres unmarked) [Example 454]		18 nM
trans-5-cyclopropyl-N-(cyclopropylsulfonyl)-2-fluoro-4-((4-(trifluoromethyl)-cyclohexyl)methoxy)benzamide [Example 259]		20 nM

From patent US8952169B2 (Genentech, Inc., priority 2012, dated 2015)
